Data on 14 compounds can be found in US6596774B1, “Synthesis, lipid peroxidation and cytotoxic evaluation of 10-substituted 1,5-dichloro-9(10H)-anthracenone derivatives” (priority 2001, dated 2003).

Where a name gives a salt, the structure may show the parent alone.

Series [1] relates to Iron-induced Lipid Peroxidation in Rat Brain Homogenates. Put plainly: Assay of lipid peroxidation (TBA method). It counts as biochemical, Wistar rats. The settings on record: for Inhibition (%) 0.005 mM / Inhibition (%) 0.05 mM / Inhibition % (0.5 mM) / Inhibition (%) 5 mM: Mean ± S.E., n = 4; for Inhibition (%) 0.005 mM / efficiency in lipid peroxidation inhibition versus ascorbic acid, (+)-α-tocopherol and mitoxantrone (in words): 0.005 mM; for Inhibition % (0.5 mM) / inhibitory effect on lipid peroxidation compared to ascorbic acid, (+)-α-tocopherol and mitoxantrone (in words): 0.5 mM. The procedure: The inhibitory effect on lipid peroxidation of these compounds were evaluated with rat brain phospholipid liposomes which provide an ideal model system for lipid peroxidation studies by Teng C. M., et. al., Eur. J. Pharmacol., vol. 303, pp. 129-139 (1996).
Assay of Lipid Peroxidation. Rat brain homogenate was prepared from the brains of freshly killed Wistar rats and its peroxidation in the presence of iron ions was measured by the thiobarbituric acid (TBA) method as described. The extent of lipid peroxidation was estimated as thiobarbituric acid-reactive substances and was read at 532 nm in a spectrophotometer (Shimadzu UV-160).

For series [2], the system named is Human Cervical Carcinoma Cells of ME 180 (GBM8401). In words: Cytotoxic activity test (cell proliferation assay), GBM8401 cells. Format: cell-based. The settings on record: for IC50: Homo sapiens, ME-180, GBM8401 cells, 50% inhibition of cellular growth following 48 h of drug exposure. From the text: (§1) We evaluated the ability of the compounds to inhibit the growth of human oral epidermoid carcinoma cells (KB cell line), human cervical carcinoma cells of ME 180 (GBM8401) and Chinese hamster ovary (CHO) cells as normal cells, and lipid peroxidation in model membranes, respectively.
(§2) Cytotoxic Activity Test. Human oral epidermoid carcinoma cells (KB cell line), human cervical carcinoma cells of ME 180 (GBM8401) and Chinese hamster ovary (CHO) cells grown in plateau phase were cultivated, and the cell proliferation assay was performed as previously described. Inhibition of cellular growth was calculated by comparison of the mean values of the test compound (N=3) with the control (N=6-8) activity: (1-test compound/control)×100.

The test system of series [3] is Human Oral Epidermoid Carcinoma Cells (KB cell line). Put plainly: Cytotoxic activity test (cell proliferation assay), KB cells. Format: cell-based. The note with it: 50% inhibition of cellular growth following 48 h of drug exposure.
Description: as §1, §2

In series [4] the test system is Chinese Hamster Ovary (CHO) Cells. In words: Cytotoxic activity test (cell proliferation assay), CHO cells as normal cells. Format: cell-based. The note with it: for IC50: Cricetulus griseus, 50% inhibition of cellular growth following 48 h of drug exposure; for toxicity in CHO compared with mitoxantrone (in words): versus mitoxantrone.
Description: as §1, §2

As for `Cc1c(C)c2c(c(C)c1O)CC[C@@](C)(CCC[C@H](C)CCC[C@H](C)CCCC(C)C)O2` [(+)-α-tocopherol, reference compound], in series [1] (Table 3), the “Inhibition (%) 0.005 mM” value is given as 0%, the “Inhibition (%) 0.05 mM” value is reported as 0%, the “Inhibition % (0.5 mM)” value turned out to be 53 ± 1.7% and the “Inhibition (%) 5 mM” value is given as 100%. In series [1] (Table 2), the “Inhibition % (0.5 mM)” value came to 53 ± 4.4%.
Broadly, the IC50 is the concentration that inhibits the measured activity by half. With `COC1c2cccc(Cl)c2C(=O)c2cccc(Cl)c21` (centres unmarked) [Compound 3a, 10-Methoxy 1,5-dichloro-9(10 H)-anthracenone], the concentration for half-maximal inhibition (IC50) in series [2] came out at 23.5 µM; in series [3], 8.8 µM; in series [4], 2.9 µM. The “toxicity in CHO compared with mitoxantrone (in words)” value in series [4] is “more toxic in CHO than mitoxantrone”. Moreover, the “Inhibition % (0.5 mM)” value in series [1] (Table 2) is listed as 7 ± 0.1%.
For `CCOC1c2cccc(Cl)c2C(=O)c2cccc(Cl)c21` (centres unmarked) [Compound 3b, 10-Ethoxy 1,5-dichloro-9(10 H)-anthracenone], the IC50 in series [2] was 21.8 µM; in series [3], 6.1 µM; in series [4], 5.8 µM. In addition, the “Inhibition % (0.5 mM)” value in series [1] (Table 2) was 7 ± 0.1%.
On to `CCCOC1c2cccc(Cl)c2C(=O)c2cccc(Cl)c21` (centres unmarked) [Compound 3c, 10-Propyloxy 1,5-dichloro-9(10 H)-anthracenone], for which the 50% inhibitory concentration (IC50) in series [2] is 11.1 µM; in series [3], 1.8 µM; in series [4] it was 42 µM. Further, in series [1] (Table 2), the “Inhibition % (0.5 mM)” value is reported as 29 ± 2.5%.
Regarding `CC(C)OC1c2cccc(Cl)c2C(=O)c2cccc(Cl)c21` (centres unmarked) [Compound 3d, 10-(2-Propyloxy) 1,5-dichloro-9(10 H)-anthracenone], the half-maximal inhibitory concentration (IC50) in series [2] is 65.4 µM; in series [3] it was 21.8 µM; in series [4], 15.2 µM. For the same compound, in series [1] (Table 2), the “Inhibition % (0.5 mM)” value is 13 ± 1.3%.
Consider `CCCCOC1c2cccc(Cl)c2C(=O)c2cccc(Cl)c21` (centres unmarked) [Compound 3e, 10-(Butyloxy) 1,5-dichloro-9(10 H)-anthracenone], for which the results for the half-inhibitory concentration (IC50) in series [2], in series [3] and in series [4] were 29.5 µM, 29.5 µM and 8 µM, respectively. Moreover, the “Inhibition % (0.5 mM)” value in series [1] (Table 2) amounted to 31 ± 3.7%.
On to `CC(C)COC1c2cccc(Cl)c2C(=O)c2cccc(Cl)c21` (centres unmarked) [Compound 3f, 10-(iso-Butyloxy) 1,5-dichloro-9(10 H)-anthracenone], for which the IC50 was found to be 43.2 µM in series [2], 14.7 µM in series [3] and 20.1 µM in series [4]. For the same compound, the “Inhibition % (0.5 mM)” value in series [1] (Table 2) was 38 ± 3.1%.
Taken in the same sequence, the figures for `O=C1c2cccc(Cl)c2C(OCc2ccccc2)c2cccc(Cl)c21` (centres unmarked) [Compound 3g, 10-Benzyloxy 1,5-dichloro-9(10 H)-anthracenone] were 18.5 µM, 93.4 µM, 24.7 µM and 16 ± 1.5%.
As to `CCN(CC)C1c2cccc(Cl)c2C(=O)c2cccc(Cl)c21` (centres unmarked) [Compound 4a, 10-Diethylamino 1,5-dichloro-9(10 H)-anthracenone], the “cytotoxicity on GBM in vitro assay (in words)” value (shortened to “cytotoxicity on GBM”) in series [2] is “high cytotoxicity and significant activity”. Moreover, the IC50 was found to be 7.5 µM in series [2], 17.2 µM in series [3] and 15 µM in series [4]. For the same compound, the “Inhibition % (0.5 mM)” value in series [1] (Table 2) came out at 12 ± 1.4%.
The compound `Cc1cccc(NC2c3cccc(Cl)c3C(=O)c3cccc(Cl)c32)c1` (centres unmarked) [Compound 4b, 10-(m-Toluidino) 1,5-dichloro-9(10 H)-anthracenone] returned a concentration for half-maximal inhibition (IC50) in series [2] of 11.2 µM. In addition, the IC50 in series [3] turned out to be 9.5 µM. Also, in series [4], 6.2 µM corresponded to half-maximal inhibition (IC50). In series [1], the “efficiency in lipid peroxidation inhibition versus ascorbic acid, (+)-α-tocopherol and mitoxantrone (in words)” value is on record as “significantly more efficient”; the “inhibitory effect on lipid peroxidation compared to ascorbic acid, (+)-α-tocopherol and mitoxantrone (in words)” value is recorded as “better inhibitory effect”. Further, in series [1] (Table 3), the “Inhibition (%) 0.005 mM” value was 23 ± 2.4%, the “Inhibition (%) 0.05 mM” value is recorded as 92 ± 4.1%, the “Inhibition % (0.5 mM)” value was found to be 100% and the “Inhibition (%) 5 mM” value was found to be 100%. Moreover, the “Inhibition % (0.5 mM)” value in series [1] (Table 2) is 100%.
On to `Cc1ccccc1NC1c2cccc(Cl)c2C(=O)c2cccc(Cl)c21` (centres unmarked) [Compound 4c, 10-(o-Toluidino) 1,5-dichloro-9(10 H)-anthracenone], for which the “cytotoxicity on GBM” value in series [2] was “high cytotoxicity and significant activity”. Besides, the half-maximal inhibitory concentration (IC50) is 2.4 µM in series [2], 3.4 µM in series [3] and 3.8 µM in series [4]. The “toxicity in CHO compared with mitoxantrone (in words)” value in series [4] was “more toxic in CHO than mitoxantrone”. In addition, in series [1] (Table 2), the “Inhibition % (0.5 mM)” value is 73 ± 3.5%.
Take `Cc1ccc(NC2c3cccc(Cl)c3C(=O)c3cccc(Cl)c32)cc1` (centres unmarked) [Compound 4d, 10-(p-Toluidino) 1,5-dichloro-9(10 H)-anthracenone]: in series [2], the “cytotoxicity on GBM” value is “high cytotoxicity and significant activity”; the 50% inhibitory concentration (IC50) was 4.6 µM. Besides, inhibition in series [3] was half-maximal at 11.3 µM (IC50). In addition, in series [4], the half-inhibitory concentration (IC50) is 3 µM and the “toxicity in CHO compared with mitoxantrone (in words)” value is “more toxic in CHO than mitoxantrone”. Also, in series [1], the “efficiency in lipid peroxidation inhibition versus ascorbic acid, (+)-α-tocopherol and mitoxantrone (in words)” value is given as “significantly more efficient”; the “inhibitory effect on lipid peroxidation compared to ascorbic acid, (+)-α-tocopherol and mitoxantrone (in words)” value is on record as “better inhibitory effect”. Besides, in series [1] (Table 3), the “Inhibition (%) 0.005 mM” value worked out at 33 ± 2.7%, the “Inhibition (%) 0.05 mM” value came to 94 ± 3.5%, the “Inhibition % (0.5 mM)” value is on record as 100% and the “Inhibition (%) 5 mM” value amounted to 100%. Further, the “Inhibition % (0.5 mM)” value in series [1] (Table 2) is on record as 100%.
As for `O=C1O[C@H]([C@@H](O)CO)C(O)=C1O` [ascorbic acid, reference compound], in series [1] (Table 3), the “Inhibition (%) 0.005 mM” value was found to be 7 ± 0.5%, the “Inhibition (%) 0.05 mM” value is listed as 22 ± 2.2%, the “Inhibition % (0.5 mM)” value is 87 ± 2.5% and the “Inhibition (%) 5 mM” value stood at 100%. For the same compound, in series [1] (Table 2), the “Inhibition % (0.5 mM)” value was 87 ± 3.1%.
For `O=C1c2c(O)ccc(O)c2C(=O)c2c(NCCNCCO)ccc(NCCNCCO)c21` [mitoxantrone-HCl, reference compound], the half-inhibitory concentration (IC50) in series [2] was found to be 1.5 µM. The compound further gave a 50% inhibitory concentration (IC50) in series [3] of 1.7 µM. Besides, the half-inhibitory concentration (IC50) in series [4] is 4 µM. Moreover, in series [1] (Table 3), the “Inhibition (%) 0.005 mM” value amounted to 10 ± 1.1%, the “Inhibition (%) 0.05 mM” value was 52 ± 3.5%, the “Inhibition % (0.5 mM)” value is recorded as 64 ± 2.1% and the “Inhibition (%) 5 mM” value was 100%. Besides, the “Inhibition % (0.5 mM)” value in series [1] (Table 2) came to 64 ± 2.8%.
